Experimental findings from patent US20030129189A1, “Tumor necrosis factor-gamma” (priority 1994, published 2003) are described below.

One assay concerns NRK-54E. The assay can be described thus: TNF-gamma activity on NRK-54E cells. Set-up: key: The numbers of “+” indicate the relative level of activities.; ++: The numbers of “+” indicate the relative level of activities.; +++: The numbers of “+” indicate the relative level of activities.; “−” indicates no detected activity at the concentration range tested. The settings on record: rat kidney epithelial-like. It is filed as cell-based.

In assay [1] the test system is bFGF-induced corneal neovascularization. As to the kind of experiment: Corneal angiogenic assay. The format is in vivo, rat. The source says:
Basic FGF (“bFGF”) has been tested in this corneal angiogenic assay in various research laboratories for a variety of purposes. It has been shown that bFGF can induce significant angiogenesis in corneas (e.g., in rabbits, rats and mice). Based on the previous studies, bFGF was used in our study of TNF-gamma as an angiogenic factor to induce the growth of blood vessels in rat corneas.
An incision, 1-1.5 mm in length, is made in the center of the cornea with a microsurgery scalpel blade.
Starting at the incision, a micropocket is created between the collagenous layers of the corneal stroma with a Castroviego cyclodialysis spatula. This pocket extends to a point 1-2 mm from the capillary bed at the corneal-scleral limbus.
bFGF, which is incorporated 1:1 into non-inflammatory Hydron polymer (available from Interferon Sciences, New Brunswick, N.J.), is implanted into the pocket.
Five or seven days after corneal implantation, corneal blood perfusion with colloidal carbon is performed. Corneas are then harvested, fixed, flattened, mounted and photographed for morphology.
An image analysis system (IPLab) is used to quantify the corneal angiogenesis. The corneal surface area, which is covered by the new blood vessels, is quantified and used in our current study. After corneal implantation surgery, TNF-gamma, angiostatin or PBS in a volume of 25 microliters was injected into the conjunctival region adjacent to the implantation site. Based on molarities of TNF-gamma and angiostatin, 10 micrograms of TNF-gamma or 5 micrograms of angiostatin were given respectively four times, once a day, during the first four days post-surgery. TNF-gamma and angiostatin were prepared in PBS.
bFGF was used to induce neovascularization of the cornea from preexisting pericorneal limbal vessels in two different versions of the assay. First, corneas were surgically implanted with hydrogel plugs containing bFGF. […] In a separate study using an alternate version of this assay, both bFGF and treatment protein were co-administered on a nitrocellulose filter disk implanted within the rat corneal stroma. […] In both assays, the surface area of the angiogenic response was quantitated from digital images of treated corneas five days following implantation.

For assay [2], the system named is Primary human aterial endothelial. As to the kind of experiment: TNF-gamma activity on primary human arterial endothelial cells. It is filed as cell-based. Set-up: key: The numbers of “+” indicate the relative level of activities.; ++: The numbers of “+” indicate the relative level of activities.; +++: The numbers of “+” indicate the relative level of activities.; “−” indicates no detected activity at the concentration range tested.

For assay [3], the target named is T1, DcR1 on transiently transfected cells (UniProt O14798 26-236, limits assumed).
T1 construct: whole, on cells
T1 sequence (looked up): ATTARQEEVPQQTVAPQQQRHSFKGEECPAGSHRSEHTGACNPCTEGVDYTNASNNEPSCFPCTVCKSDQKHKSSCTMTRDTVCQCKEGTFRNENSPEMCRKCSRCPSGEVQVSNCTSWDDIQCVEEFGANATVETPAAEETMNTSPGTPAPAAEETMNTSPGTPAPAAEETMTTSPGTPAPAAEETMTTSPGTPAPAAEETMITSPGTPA
As to the kind of experiment: flow cytometry on transiently transfected cells. How it is done:
(§1) One million cells, in 0.1 ml of FACS buffer (PBS, 0.1% BSA, 0.1% NaN₃), were incubated with 0.1-1 microgram of protein or antibody at RT for 15 min. The cells were washed with 3 ml of FACS buffer, reacted with biotinylated primary antibody, and stained with PE-conjugated secondary antibody at RT for 15 min. Cells were then washed again, resuspended in 0.5 microgram/ml of propidium iodide, and live cells were gated and analyzed on a FACScan using the CellQuest software (BD Biosciences).

Assay [4] deals with T2, CD30 on transiently transfected cells (UniProt P28908 19-595, limits assumed).
T2 construct: whole, on cells
T2 sequence (looked up): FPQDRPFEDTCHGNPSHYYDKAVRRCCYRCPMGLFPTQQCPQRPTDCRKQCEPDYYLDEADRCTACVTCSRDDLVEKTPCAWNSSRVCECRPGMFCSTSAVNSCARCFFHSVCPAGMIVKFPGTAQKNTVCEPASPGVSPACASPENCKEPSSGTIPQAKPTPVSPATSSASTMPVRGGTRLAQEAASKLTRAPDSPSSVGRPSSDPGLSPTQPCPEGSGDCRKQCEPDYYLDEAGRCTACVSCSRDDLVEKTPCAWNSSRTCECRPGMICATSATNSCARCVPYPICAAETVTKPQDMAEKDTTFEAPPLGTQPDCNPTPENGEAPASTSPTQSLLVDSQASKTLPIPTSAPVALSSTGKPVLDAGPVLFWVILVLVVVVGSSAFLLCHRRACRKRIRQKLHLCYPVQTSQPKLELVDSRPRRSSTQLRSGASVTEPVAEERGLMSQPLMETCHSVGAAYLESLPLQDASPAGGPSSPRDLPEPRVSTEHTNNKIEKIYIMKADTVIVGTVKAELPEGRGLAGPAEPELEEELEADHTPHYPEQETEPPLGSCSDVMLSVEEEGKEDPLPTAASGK
The assay can be described thus: flow cytometry on transiently transfected cells. How it is done: as §1

Assay [5] has as its target T3, HveA on transiently transfected cells (UniProt Q92956 39-283, limits assumed).
T3 construct: whole, on cells
T3 sequence (looked up): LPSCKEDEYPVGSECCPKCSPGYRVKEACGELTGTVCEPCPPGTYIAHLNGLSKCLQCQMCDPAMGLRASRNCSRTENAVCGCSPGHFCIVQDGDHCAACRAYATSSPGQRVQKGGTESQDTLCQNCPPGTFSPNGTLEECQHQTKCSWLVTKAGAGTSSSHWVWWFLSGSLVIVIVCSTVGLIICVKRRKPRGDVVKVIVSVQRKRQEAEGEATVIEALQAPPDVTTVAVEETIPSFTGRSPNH
As to the kind of experiment: flow cytometry on transiently transfected cells. As to the method: as §1

For “TNF-gamma: new member of the tumor necrosis factor family; the term refers to TNF-gamma-alpha and/or TNF-gamma-beta”, in the assay on NRK-54E, the Adhesion result is reported as “−−”, the Differentiation result is listed as “−−” and the Proliferation entry is “−”. For the same molecule, the “angiogenic process in bFGF-implanted corneas” value in assay [1] (bFGF (300 ng) implant, conjunctival injection once a day for four days, 10 micrograms TNF-gamma or 5 micrograms angiostatin, seven days after surgery, vs PBS) was “significantly slowed down the angiogenic process”. For the same molecule, the “vessel growth in PBS-implanted corneas” value in assay [1] (multiple conjunctival injections) is “no obvious vessel growth”. In addition, in assay [2], the Differentiation result was “−?” and the Proliferation result is “++”.

B1: FLAG-tagged soluble TNF-gamma-beta (aa 72-251) (ligand)
chain: LKGQEFAPSHQQVYAPLRADGDKPRAHLTVVRQTPTQHFKNQFPALHWEHELGLAFTKNRMNYTNKFLLIPESGDYFIYSQVTFRGMTSECSEIRQAGRPNKPDSITVVITKVTDSYPEPTQLLMGTKSVCEVGSNWFQPIYLGAMFSLQEGDKLMVNVSDISLVDYTKEDKTFFGAFLL
notes: also called FLAG-TL1β; FLAG-TNF-gamma-beta; not shown: The N-terminal FLAG tag (pFLAG-CMV-1 vector) and any vector linker
Take B1: the binding result in assay [3], in assay [4] and in assay [5] was “no binding” each time.
